Bridge positions count the residues as written; N and C are the ends. Peptide text beside a SMILES is read from it.
What was measured:
[1] = test system: TSP-1-dependent TGF-β activation; test: TSP-1-dependent TGF-β activation in PMA-differentiated THP-1 cells with 293-TGFβ Res reporter cells; type: cell-based; conditions: 100 μM polypeptide, 24 h; ratio to negative control group (1.00)
Method: In this Example, the inhibitory effects of the polypeptides on TSP-1-dependent TGF-β activation were detected using a model based on a high TSP-1 expressing cell. In the assay, THP-1 cells (American Typical Culture Collection, ATCC, TIB-20) were induced by phorbol ester (Phorbol 12-myristate 13-acetate, PMA) (Sigma, Catalog No. P1585) and differentiated into macrophage-like cells with distinct macrophage expression profiles.
The experiment was performed as follows: THP-1 cells were inoculated in a 96-well plate, and treated with 300 nM PMA for differentiation and adherence to form macrophage-like cells. 100 μM polypeptide was added (For the negative control group, an equal volume of PBS (the solvent for the polypeptide) was added, while the positive control group received an equal concentration of the polypeptide shown in SEQ ID NO: 50.) The cells were treated for 24 hours, and then a 293 reporter cell strain, 293-TGFβ Res cell strain (novoprotein, Catalog No. XCC03-1), was added for detecting TGF-β activity, and co-cultivated for 24 hours. Bio-Lite Luciferase Assay lysate comprising fluorescent substrate (Vazyme, Catalog No. DD1201-01) was added, and the fluorescent intensity was detected using a multifunctional microplate reader (TECAN, model Infinite 200 Pro). The inhibitory effect of the polypeptide on TGF-β activation was assessed by calculating the ratio of the fluorescence signal from the polypeptide-treated groups to that of the negative control group.

P-Smad2/3 = P-Smad2/3 content in lung tissue, BLM mouse fibrosis model; type: in vivo; conditions: single intratracheal dose 3 mg/kg on Day 7, lung 24 h later, BLM model group = 100.00
Summary of the method: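 Male C57/6J mice (6–8 weeks, 18–20 g, n=8/group) received intratracheal bleomycin 0.7 USP/kg on Day 1, then a single intratracheal 3 mg/kg peptide dose or saline on Day 7. Values are expressed as the treated/model content ratio.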

[2] = test system: human lung adenocarcinoma A549 cells; test: Transwell tumor cell migration, co-culture with PMA-differentiated THP-1 cells; type: cell-based; conditions: 100 μM polypeptide 48 h, co-culture 24 h; negative control group = 100.00
Method: (§1) This Example was to assess the effects of polypeptides on the migration abilities of different tumor cells. The experiment was performed using transwell nested chambers (membrane pore size of 8 μm), where THP-1 cells were inoculated in the lower chamber and treated with 300 nM PMA (Sigma, Catalog No.P1585) for differentiation and chamber-wall adherence, and then treated with 100 μM polypeptide (in the negative control, an equal volume of solvent was added) for 48 hours. The upper chamber was inoculated with tumor cells, human lung adenocarcinoma A549 cells (American Typical Culture Collection, ATCC, CCL-18), and co-cultured for 24 hours; or inoculated with human liver cancer HepG2/C3A cells (ATCC, CRL-10741), and co-cultured for 24 h; or inoculated with human breast cancer MCF7 cells (ATCC, HTB-22), and co-cultured for 48 h. After that, the upper chamber was taken out, fixed with 70% ethanol for 10 min and washed, then stained with Giemsa staining solution (Beyotime, Catalog No.C0131) for 45 min. After washing with double distilled water 2-3 times, unmigrated cells were wiped off the upper layer with a cotton swab. After the chamber was dried, it was observed under a microscope, and five different fields of view under a 100× magnification were randomly selected for counting and statistics. The polypeptides had significant inhibitory effects on the migratory abilities of human lung adenocarcinoma cells, human liver cancer cells, and human breast cancer cells.

[3] = test system: human breast cancer MCF7 cells; test: as above; type: cell-based; conditions: 100 μM polypeptide 48 h, co-culture 48 h; negative control group = 100.00
Method: as §1

[4] = test system: human liver cancer HepG2/C3A cells; test: as above; type: cell-based; conditions: 100 μM polypeptide 48 h, co-culture 24 h; negative control group = 100.00
Method: as §1

[5] = test system: rat fibrotic disease model (bleomycin); test: Lung index and fibrotic pathology (Masson's trichrome) in bleomycin rat fibrosis model; type: in vivo; conditions: for Lung index Mean(‰): 2 mg/kg intratracheal twice weekly x4 from Day 1, Day 15, BLM model 8.63, negative control 4.62; for Fibrosis score Mean: 2 mg/kg intratracheal twice weekly x4 from Day 1, Day 15, Masson's trichrome, BLM model 3.34, negative control 0.96
Method: This Example was to assess the inhibitory effect of polypeptide administration on the expression levels of pro-fibrotic factors at pathological fibrotic sites. 6- to 8-week-old male SD rats weighing 200 to 220 g were used as subjects for the study. The experimental animals were randomized into groups, 6 animals in each group. On the day of modeling (Day 1), a single dose of 1.8 USP/kg of bleomycin solution was administered via the tracheal route to the BLM model group and each peptide-treated group to induce the model. The negative control group was given an equal volume of saline. Starting on Day 1, each peptide-treated group received intratracheal administration of the peptide at a dosage of 2 mg/kg, with a dosing frequency of twice a week, for a total of four administrations. The BLM model group and the negative control group received an equal volume of solvent (saline) as a control, with the volume being 100 μL. The procedure followed that described in Example 4.
On Day 15, the lung tissues were dissected, washed with saline to remove blood stains, dried with gauze, and weighed. The lung index was calculated (lung index=(wet lung weight/body weight)×1000. This index reflects the general condition of the lung tissue, including edema, inflammation, and fibrosis). Histopathological analysis was performed on the dissected lung tissues. The lung tissues were perfused with 5 mL of paraformaldehyde via the trachea and placed in 40 mL of paraformaldehyde. A small amount of gauze was added to ensure the lung tissues were completely immersed in the fixative solution. The tissues were fixed for more than 24 hours. One lobe of the left lung and four lobes of the right lung were trimmed to the maximum coronal plane, and the left and right lungs were individually placed in two embedding cassettes, and then paraffin-embedded to make 3 μm sections. Masson's trichrome staining was performed as described in Example 7. After digital scanning, for each lung lobe, ≤10 visual fields were captured under a 10× magnification. The severity score of fibrosis was assessed to evaluate the inhibitory effects of the polypeptides on fibrotic deposition at pathological fibrotic sites.

C[C@@H]1NC(=O)[C@H](CC(=O)O)NC(=O)[C@H](CCC(N)=O)NC(=O)[C@H]([C@@H](C)O)NC(=O)[C@H](CC(N)=O)NC(=O)[C@H](CC(=O)O)NC(=O)[C@H](CCC(=O)O)NC1=O [SEQ ID NO: 40, cyclo[Thr-Gln-Asp-Ala-Glu-Asp-Asn]] (cyclo(AEDNTQD))
Mean (relative fluorescence intensity) [1]: 0.77 | P-Smad2/3 content in lung tissue, ratio to model group, Mean(%) (P-Smad2/3; 3 mg/kg): 83.20% | A549 migration Mean (%) [2]: 67.97% | MCF7 migration Mean (%) [3]: 51.27% | HEPG2/C3A migration Mean (%) [4]: 67.27%

CC(=O)N[C@H](C(=O)N[C@H]1CSSC[C@@H](C(=O)O)NC(=O)[C@H](CC(N)=O)NC(=O)[C@H](CC(=O)O)NC(=O)[C@H](CCC(=O)O)NC(=O)[C@H](C)NC(=O)[C@H](CC(=O)O)NC1=O)[C@@H](C)O [SEQ ID NO: 43, Ac-Thr-cyclo[Cys-Asp-Ala-Glu-Asp-Asn-Cys]] (Ac-TCDAEDNC-OH; disulfide 2-8)
Mean (relative fluorescence intensity) [1]: 0.65 | Lung index Mean(‰) [5]: 7.11 ‰ | Fibrosis score Mean [5]: 2.72 | P-Smad2/3 content in lung tissue, ratio to model group, Mean(%) (P-Smad2/3): 49.30% | A549 migration Mean (%) [2]: 83.37% | MCF7 migration Mean (%) [3]: 73.84% | HEPG2/C3A migration Mean (%) [4]: 71.02%

CC(=O)N[C@H](C(=O)N[C@H]1CSSC[C@@H](C(N)=O)NC(=O)[C@H](CC(N)=O)NC(=O)[C@H](CC(=O)O)NC(=O)[C@H](CCC(=O)O)NC(=O)[C@H](C)NC(=O)[C@H](CC(=O)O)NC1=O)[C@@H](C)O [SEQ ID NO: 44, Ac-Thr-cyclo[Cys-Asp-Ala-Glu-Asp-Asn-Cys]-NH2] (Ac-TCDAEDNC-NH2; disulfide 2-8)
Mean (relative fluorescence intensity) [1]: 0.43 | P-Smad2/3 content in lung tissue, ratio to model group, Mean(%) (P-Smad2/3): 79.93% | A549 migration Mean (%) [2]: 73.63% | MCF7 migration Mean (%) [3]: 68.24% | HEPG2/C3A migration Mean (%) [4]: 70.63%

C[C@@H]1NC(=O)[C@H]([C@@H](C)O)NC(=O)[C@H](CC(N)=O)NC(=O)[C@H](CC(=O)O)NC(=O)[C@H](CCC(=O)O)NC(=O)[C@@H]2CCCN2C(=O)[C@H](CC(=O)O)NC(=O)[C@H](CCC(N)=O)NC(=O)[C@H]([C@@H](C)O)NC(=O)[C@H](CO)NC1=O [SEQ ID NO: 46, cyclo[Thr-Gln-Asp-Pro-Glu-Asp-Asn-Thr-Ala-Ser]] (cyclo(ASTQDPEDNT))
Mean (relative fluorescence intensity) [1]: 0.69 | P-Smad2/3 content in lung tissue, ratio to model group, Mean(%) (P-Smad2/3): 74.60% | A549 migration Mean (%) [2]: 36.12% | MCF7 migration Mean (%) [3]: 57.98% | HEPG2/C3A migration Mean (%) [4]: 64.77%

Ac-TQDAEDN-NH2 [SEQ ID NO: 06, Ac-Thr-Gln-Asp-Ala-Glu-Asp-Asn-NH2]
Mean (relative fluorescence intensity) [1]: 0.65 | Lung index Mean(‰) [5]: 7.17 ‰ | Fibrosis score Mean [5]: 2.66 | P-Smad2/3 content in lung tissue, ratio to model group, Mean(%) (P-Smad2/3): 54.89% | A549 migration Mean (%) [2]: 80.41% | MCF7 migration Mean (%) [3]: 51.95% | HEPG2/C3A migration Mean (%) [4]: 81.77%

Ac-TQDAEDNTASH-NH2 [SEQ ID NO: 33, Ac-Thr-Gln-Asp-Ala-Glu-Asp-Asn-Thr-Ala-Ser-His-NH2]
Mean (relative fluorescence intensity) [1]: 0.67 | Lung index Mean(‰) [5]: 7.37 ‰ | Fibrosis score Mean [5]: 2.63 | P-Smad2/3 content in lung tissue, ratio to model group, Mean(%) (P-Smad2/3): 71.09% | A549 migration Mean (%) [2]: 62.89% | MCF7 migration Mean (%) [3]: 47.13% | HEPG2/C3A migration Mean (%) [4]: 72.07%

Ac-TQDAEDPTA-NH2 [SEQ ID NO: 22, Ac-Thr-Gln-Asp-Ala-Glu-Asp-Pro-Thr-Ala-NH2]
Mean (relative fluorescence intensity) [1]: 0.74 | Lung index Mean(‰) [5]: 7.39 ‰ | Fibrosis score Mean [5]: 2.70 | P-Smad2/3 content in lung tissue, ratio to model group, Mean(%) (P-Smad2/3): 55.32% | A549 migration Mean (%) [2]: 59.45% | MCF7 migration Mean (%) [3]: 48.64% | HEPG2/C3A migration Mean (%) [4]: 76.69%

Ac-TQDAEDPTAS-NH2 [SEQ ID NO: 25, Ac-Thr-Gln-Asp-Ala-Glu-Asp-Pro-Thr-Ala-Ser-NH2]
Mean (relative fluorescence intensity) [1]: 0.73 | Lung index Mean(‰) [5]: 7.42 ‰ | Fibrosis score Mean [5]: 2.62 | P-Smad2/3 content in lung tissue, ratio to model group, Mean(%) (P-Smad2/3): 65.07% | A549 migration Mean (%) [2]: 62.95% | MCF7 migration Mean (%) [3]: 61.75% | HEPG2/C3A migration Mean (%) [4]: 63.99%

Ac-TQDPEDNTAS-NH2 [SEQ ID NO: 26, Ac-Thr-Gln-Asp-Pro-Glu-Asp-Asn-Thr-Ala-Ser-NH2]
Mean (relative fluorescence intensity) [1]: 0.68 | Lung index Mean(‰) [5]: 7.17 ‰ | Fibrosis score Mean [5]: 2.43 | P-Smad2/3 content in lung tissue, ratio to model group, Mean(%) (P-Smad2/3): 76.78% | A549 migration Mean (%) [2]: 73.25% | MCF7 migration Mean (%) [3]: 63.23% | HEPG2/C3A migration Mean (%) [4]: 55.16%
